{"source": "patent US20190321355A1", "about": "“TREATMENT OF MENTAL, MOVEMENT AND BEHAVIORAL DISORDERS” (priority 2016, published 2019)", "key": {"C57BL/6JOlaHsd mice [1]": {"test_system": "C57BL/6JOlaHsd mice", "assay_type": "in vivo", "conditions": "for DOI-induced repetitive head twitches: dose not given"}, "C57BL/6JOlaHsd mice [2]": {"test_system": "C57BL/6JOlaHsd mice", "assay": "DOI-induced ear scratch response (ESR) / urge-like behavior", "assay_type": "in vivo", "description": "(§1) • 1. CB2 receptor selective ligands or CB2/SERM ligands were injected intraperitoneally or orally at doses of 0.001 to 100 mg/kg one to two hours before the injection of DOI. In order to test the effect of DOI on head twitch responses, ear scratch and grooming responses, DOI was intraperitoneally injected at a dose of 1 mg/kg.\n(§2) ESR behavior is a measure for urge-like behavior and often preceded HTRs. The ESR is a rapid scratching movement of the head, neck, ears, or other body surfaces by either hindlimbs. The number of ESRs was manually counted. Every ESR was also counted as a grooming. In some experiments, each ESR was considered as a separate episode if the animal moved. In some experiments, each ESR was considered as a separate episode for every ESR.\nIn order to further study the effect of the MH compositions on repetitive behavior, C57BL/6JOlaHsd mice were intraperitoneally injected at age 3 weeks or 6 weeks with a single dose of MH at 0.2-50 mg/kg or equivalent vehicle. One hour later mice were intraperitoneally injected a single dose of 1 mg/kg DOI or saline. HTR responses and ESR responses in mice were recorded."}, "[3]": {"test_system": "CB2 receptor knockout mice", "assay": "DOI-induced head twitch response (HTR) in CB2 receptor knockout mice", "assay_type": "in vivo", "description": "as §1\n(§3) After DOI or saline injection, mice were placed in a transparent glass cage 30×40×31 cm divided into squares of 7.5×7.5 cm. Head twitch responses (HTRs) were manually counted by an observer. The HTR in mice is a distinctive behavior that cannot be misplaced with other head movements. After 5 min habitation to the cage the HTR were counted every 3 min for 15 min (a total of 20 min in the cage).\n(§4) With a view to further study the effect of the MH compositions on repetitive behavior, CB2 receptor knockout mice (The Jackson Laboratory) were intraperitoneally injected at age 3 weeks or 6 weeks with a single dose of MH at 0.2-50 mg/kg or equivalent vehicle. One hour later mice were intraperitoneally injected a single dose of 1 mg/kg DOI or saline. HTR responses, grooming and ESR responses in mice were recorded.\nas §4, with “HU-308” for “MH”, “6-21” for “6”, “responses” for “responses, grooming”"}, "C57BL/6JOlaHsd mice [4]": {"test_system": "C57BL/6JOlaHsd mice", "assay": "ESR/grooming (urge-like response) after drug alone", "assay_type": "in vivo", "conditions": "doses 1-20 mg/kg i.p., age 6 weeks, no DOI", "from_the_text": "as §2\nGrooming behavior is a measure for anxiety. Grooming behavior in mice is characterized by licking its fur, groom with the forepaws, or scratch with any limb. Often the mouse will mix all of these grooming behaviors. The number of grooms was manually counted. In some experiments, each grooming behavior was considered as a separate episode if the animal moved its hindlimbs. In some experiments, each grooming behavior was considered as a separate episode for every grooming behavior.\n(§5) With a view to further study the effect of the MH compositions on repetitive behavior, C57BL/6JOlaHsd mice were intraperitoneally injected at age 3 weeks or 6 weeks with a single dose of MH at 0.2-50 mg/kg or equivalent vehicle. Optionally, one hour later mice received a single injection of saline (i.e. in the absence of DOI to test the effect of MH alone). HTR responses, ESR and grooming responses in mice were recorded."}, "CB2 receptor": {"target": "CB2 receptor (Homo sapiens, UniProt P34972)", "sequence (P34972 whole entry)": "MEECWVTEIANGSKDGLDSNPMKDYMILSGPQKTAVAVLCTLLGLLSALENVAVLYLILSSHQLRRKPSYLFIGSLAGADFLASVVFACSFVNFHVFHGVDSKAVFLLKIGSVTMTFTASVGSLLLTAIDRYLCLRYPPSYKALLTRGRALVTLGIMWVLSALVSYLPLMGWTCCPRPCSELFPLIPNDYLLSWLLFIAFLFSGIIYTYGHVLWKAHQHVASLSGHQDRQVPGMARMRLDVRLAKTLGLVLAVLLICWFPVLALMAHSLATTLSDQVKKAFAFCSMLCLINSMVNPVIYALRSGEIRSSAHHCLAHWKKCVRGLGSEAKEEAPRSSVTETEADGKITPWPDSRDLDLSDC", "conditions": "Schuehly et al. 2011; read-out: Ki, CB2 receptor ligand; cited from earlier work"}, "Sabra mice": {"test_system": "Sabra mice", "assay": "Ultrasonic vocals, SR141716A-induced vocal tic-like behavior", "assay_type": "in vivo"}, "C57BL/6JOlaHsd mice [5]": {"test_system": "C57BL/6JOlaHsd mice", "assay": "Head twitch response after drug alone (saline instead of DOI)", "assay_type": "in vivo", "description": "as §3, §5\nas §5, with “HU-308” for “MH”, “weeks” for “weeks or 6 weeks”, “vehicle” for “vehicle. Optionally,”, “responses and” for “responses,”, “ESR” for “ESR and grooming”"}, "C57BL/6JOlaHsd mice [6]": {"test_system": "C57BL/6JOlaHsd mice", "assay": "Marble burying test (compulsive behavior)", "assay_type": "in vivo", "conditions": "age 6 weeks, one hour after a single injection", "description": "Mice were habituated to the test room for 1 h. A mouse was injected with DOI as above and then placed in the experimental cage (white plastic 36×24.5 ×14.5 cm) filled with 5 cm sawdust for 5 min, in the absence of marbles. The mouse was taken out and twenty black glass were arranged 4 by 5 with 7 cm apart and 1 cm apart from the wells of the cage. Each mouse was tested for its marble burying activity for 30 min. Activity was videotaped with EthoVision and buried marbles were counted manually at the end of the experiment (after 30 min). A marble considered as buried when it was sawdust-covered by two third of its volume. Marbles that were moved were also counted.\nWith a view to study the effect of the JTE-907 and M1 compositions on repetitive behavior, C57BL/6JOlaHsd mice were intraperitoneally injected at age 6 weeks with a single dose of JTE-907 at 0.2-50 mg/kg, M1 at 0.2-50 mg/kg or equivalent vehicle. The number of buried marbles in the burying marble test by each mouse was recorded."}, "[7]": {"conditions": "5 mg/kg during postnatal days 5-13; U.S. Pat. No. 9,486,419; cited from earlier work"}, "[8]": {"conditions": "10 mg/kg i.p. single dose, age 3 weeks, one hour before DOI 1 mg/kg i.p."}, "[9]": {"conditions": "5 mg/kg i.p., age 3 weeks, one hour before DOI 1 mg/kg"}, "[10]": {"conditions": "0.2 mg/kg i.p., age 3 weeks, one hour before DOI"}}, "note": "pKi: −log10 of the molar value. Where a name gives a salt, the structure may show the parent alone. Read-outs that look alike come from different tables or passages of the source.", "data": [{"smiles": "CCN(CC)CCOc1ccc(C(=C(Cl)c2ccccc2)c2ccccc2)cc1", "note": "[clomiphene citrate]", "values": [{"measurement": "DOI-induced HTR frequency", "setting": "C57BL/6JOlaHsd mice [1]; [8]", "value": "did not significantly reverse"}]}, {"smiles": "COc1cc(CC(C)N)c(OC)cc1I.Cl", "note": "(single isomer, unassigned; (-)) [DOI, (−)-1-(2,5-dimethoxy-4-iodophenyl)-2-aminopropane hydrochloride]", "values": [{"measurement": "ESR frequency, DOI vs control mice", "setting": "C57BL/6JOlaHsd mice [2]; DOI 1 mg/kg i.p.", "value": "increased"}, {"measurement": "HTR frequency, model mice (DOI) vs control mice", "setting": "C57BL/6JOlaHsd mice [1]; DOI 1 mg/kg i.p., age 3 weeks", "value": "increased"}, {"measurement": "HTR frequency in CB2 receptor knockout mice after DOI", "setting": "[3]; DOI 1 mg/kg i.p., age 6 weeks", "value": "increased"}]}, {"smiles": "C=CCc1ccc(O)c(-c2ccc(OC)c(CC=C)c2)c1", "note": "[MH, 2-(4-Methoxy-3-prop-2-enylphenyl)-4-prop-2-enylphenol]", "values": [{"measurement": "urge-like response (grooming/ESR), drug alone", "setting": "C57BL/6JOlaHsd mice [4]", "value": "did not induce urge-like response at any dose"}, {"measurement": "frequency of DOI-induced ESR behavior", "setting": "C57BL/6JOlaHsd mice [2]; i.p., one hour before DOI 1 mg/kg", "value": "reduced"}, {"measurement": "pKi", "setting": "CB2 receptor", "value": 7.30}, {"measurement": "DOI-induced HTRs", "setting": "C57BL/6JOlaHsd mice [1]; 1 mg/kg i.p., age 3 weeks, one hour before DOI 1 mg/kg", "value": "reduced"}, {"measurement": "DOI-induced HTRs", "setting": "C57BL/6JOlaHsd mice [1]; 1 mg/kg i.p., age 6 weeks, one hour before DOI 1 mg/kg", "value": "reduced"}, {"measurement": "DOI-induced HTR frequency", "setting": "C57BL/6JOlaHsd mice [1]; 1 mg/kg oral (gavage) in self-emulsifying oral formulation, age 3 weeks, two hours before DOI 1 mg/kg i.p.", "value": "significantly reduced"}, {"measurement": "DOI-induced HTR frequency", "setting": "C57BL/6JOlaHsd mice [1]; [9]", "value": "reduced"}, {"measurement": "DOI-induced HTRs", "setting": "C57BL/6JOlaHsd mice [1]; 5 mg/kg i.p., age 6 weeks, one hour before DOI 1 mg/kg", "value": "reduced"}, {"measurement": "DOI-induced HTR frequency", "setting": "C57BL/6JOlaHsd mice [1]; 5 mg/kg oral (gavage) in self-emulsifying oral formulation, age 3 weeks, two hours before DOI 1 mg/kg i.p.", "value": "significantly reduced"}, {"measurement": "effect to reverse DOI-induced HTR, age 3 weeks vs 6 weeks", "setting": "C57BL/6JOlaHsd mice [1]; i.p., after 20 min from DOI injection", "value": "higher at age 3 weeks than 6 weeks"}, {"measurement": "effect on DOI-induced HTR frequency, 1 mg/kg vs 5 mg/kg", "setting": "C57BL/6JOlaHsd mice [1]; oral formulation, age 3 weeks", "value": "greater than this of 5 mg/kg"}, {"measurement": "vocal tic-like behavior (number of ultrasonic vocal events)", "setting": "Sabra mice; SR141716A 5 mg/kg s.c. postnatal day 1-3, drug s.c. at age 13 days, one hour before recording", "value": "significantly reduces"}, {"measurement": "HTR, drug alone", "setting": "C57BL/6JOlaHsd mice [5]; doses 1-20 mg/kg i.p., age 6 weeks, no DOI", "value": "did not induce HTR at any dose"}, {"measurement": "DOI-induced HTR frequency in CB2 receptor knockout mice", "setting": "[3]; mouse, in vivo", "value": "did not reduce"}, {"measurement": "number of buried marbles", "setting": "C57BL/6JOlaHsd mice [6]; 10 mg/kg i.p.", "value": "reduced"}]}, {"smiles": "CCCCCCC(C)(C)c1cc(OC)c([C@@H]2C=C(CO)[C@@H]3C[C@H]2C3(C)C)c(OC)c1", "note": "[HU-308, [(1R,2R,5R)-2-[2,6-dimethoxy-4-(2-methyloctan-2-yl)phenyl]-7,7-dimethyl-4-bicyclo[3.1.1]hept-3-enyl] methanol]", "values": [{"measurement": "DOI-induced HTR frequency", "setting": "C57BL/6JOlaHsd mice [1]; [10]", "value": "reduced"}, {"measurement": "DOI-induced HTR frequency", "setting": "C57BL/6JOlaHsd mice [1]; [9]", "value": "reduced"}, {"measurement": "DOI-induced repetitive head twitches", "setting": "C57BL/6JOlaHsd mice [1]", "value": "able to reduce"}, {"measurement": "repetitive behavior (HTR), drug alone", "setting": "C57BL/6JOlaHsd mice [5]; 0.2 mg/kg i.p., age 3 weeks, saline instead of DOI", "value": "significantly increased"}, {"measurement": "motor tics/head twitches at the age of 12 weeks, open field test", "setting": "[7]", "value": "induce abnormal motor tics/head twitches"}, {"measurement": "DOI-induced HTR frequency in CB2 receptor knockout mice", "setting": "[3]; 5 mg/kg i.p., male, age 6-21 weeks, DOI 1 mg/kg", "value": "significantly reduces"}]}, {"smiles": "Cc1c(C(=O)NN2CCCCC2)nn(-c2ccc(Cl)cc2Cl)c1-c1ccc(Cl)cc1", "note": "[SR141716A]", "values": [{"measurement": "vocalization vs control litter mates", "setting": "Sabra mice; administered to mice pups at the age of one to two days", "value": "higher level of vocalization and/or higher number of vocals"}]}, {"smiles": "CCCCCOc1c(OC)ccc2cc(C(=O)NCc3ccc4c(c3)OCO4)c(=O)[nH]c12", "note": "[JTE-907, N-(benzo[1,3]dioxol-5-ylmethyl)-7-methoxy-2-oxo-8-pentyloxy-1,2-dihydroquinoline-3-carboxamide]", "values": [{"measurement": "DOI-induced HTR frequency", "setting": "C57BL/6JOlaHsd mice [1]; [10]", "value": "reduced"}, {"measurement": "DOI-induced HTR frequency", "setting": "C57BL/6JOlaHsd mice [1]; [9]", "value": "reduced"}, {"measurement": "number of buried marbles", "setting": "C57BL/6JOlaHsd mice [6]; 5 mg/kg i.p.", "value": "reduced"}]}, {"smiles": "C=C1CC/C=C(\\C)CC[C@@H]2[C@@H]1CC2(C)C", "note": "[BCP, beta-caryophyllene]", "values": [{"measurement": "DOI-induced repetitive head twitches", "setting": "C57BL/6JOlaHsd mice [1]", "value": "able to reduce"}]}, {"smiles": "O=C(c1ccc(OCCN2CCCCC2)cc1)c1c(-c2ccc(O)cc2)sc2cc(O)ccc12", "note": "[raloxifene]", "values": [{"measurement": "DOI-induced HTR frequency", "setting": "C57BL/6JOlaHsd mice [1]; [8]", "value": "reduced"}]}]}
